The text below walks through data of US8138175B2, “Heterocyclyl compounds” (Hoffmann-La Roche Inc., priority 2008, dated 2012).

The target of this assay is T1, human chemokine receptor 2 isoform B (Homo sapiens, UniProt P41597).
T1 construct: host or cells: CHOK1-CCR2B-A5 (CHO-K1) cells
T1 sequence (P41597 1-360 isoform P41597-2): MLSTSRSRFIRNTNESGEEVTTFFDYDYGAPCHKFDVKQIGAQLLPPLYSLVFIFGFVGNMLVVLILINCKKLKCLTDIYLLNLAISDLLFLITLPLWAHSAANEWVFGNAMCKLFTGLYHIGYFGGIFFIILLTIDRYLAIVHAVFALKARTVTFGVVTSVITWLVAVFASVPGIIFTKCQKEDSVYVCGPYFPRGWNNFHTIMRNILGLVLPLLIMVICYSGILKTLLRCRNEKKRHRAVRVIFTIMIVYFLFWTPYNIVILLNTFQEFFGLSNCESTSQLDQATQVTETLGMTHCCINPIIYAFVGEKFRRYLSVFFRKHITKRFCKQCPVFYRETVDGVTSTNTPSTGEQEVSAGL
The assay is described as follows: Calcium mobilization assay. Format: cell-based. The settings on record: Ca mobilization assay for CCR2; CHOK1-CCR2B-A5 cells; antagonist activity against 20 nM MCP-1; FLIPR, Fluo-4. How it is done: Calcium Mobilization Assay
CHOK1-CCR2B-A5 cells (from Euroscreen) stably overexpressing the human chemokine receptor 2 isoform B were cultured in Nutrient Hams F12 medium supplemented with 5% FBS, 100 U/ml penicillin, 100 μg/ml streptomycin, 400 μg/ml G418 and 5 μg/ml puromycin.
For the assay cells were grown overnight in 384-well black clear flat bottom polystyrene plates (Costar) at 37° C. at 5% CO2. After washing with DMEM, 20 mM Hepes, 2.5 mM probenecid, 0.1% BSA (DMEM assay buffer) cells were loaded with 4 μM Fluo-4 in the same DMEM assay buffer for 2 hours at 30° C. Excess dye was removed and cells were washed with DMEM assay buffer. 384-well compound plates were prepared with DMEM assay buffer/0.5% dimethyl sulfoxide with or without various concentrations of test compounds. Usually compounds were tested for agonist and antagonist activity.
Test compounds were added to the assay plate and agonist activity was monitored as fluorescence for 80 seconds with a FLIPR (488 nm excitation; 510-570 nm emission; Molecular Devices). After 20-30 min. of incubation at 30° C., 20 nM MCP-1 (R&D; Roche) was added and fluorescence was monitored again for 80 seconds. Increases in intracellular calcium are reported as maximum fluorescence after agonist exposure minus basal fluorescence before exposure. Antagonist activity is indicated as inhibitor concentration required for 50% inhibition of specific calcium increases.
On to `O=C1CCN(c2ccc(OC(F)(F)F)cc2)CCN1[C@H](CO)CCN1CCC2(CC2)[C@H](O)C1` [Example 12, 4-[(S)-3-((S)-4-Hydroxy-6-aza-spiro[2.5]oct-6-yl)-1-hydroxymethyl-propyl]-1-(4-trifluoromethoxy-phenyl)-[1,4]diazepan-5-one], for which the IC50 turned out to be 120 nM. With `CN(C)C(=O)[C@H](CCN1CCC2(CC2)[C@H](O)C1)N1CCN(c2cccc(C(F)(F)F)c2)CCC1=O` [Example 22, (S)-4-((S)-4-Hydroxy-6-aza-spiro[2.5]oct-6-yl)-N,N-dimethyl-2-[7-oxo-4-(3-trifluoromethyl-phenyl)-[1,4]diazepan-1-yl]-butyramide] the figure was 100 nM; with `CC1C(=O)N(CCCN2CCC3(CC3)[C@H](O)C2)CCN1c1cccc(I)c1` (stereo partly drawn) [Example 89, 1-[3-((S)-4-Hydroxy-6-aza-spiro[2.5]oct-6-yl)-propyl]-4-(3-iodo-phenyl)-3-methyl-piperazin-2-one], 35 nM. To `C[C@H]1C(=O)N(CCCN2CCCCC2)CCN1c1cccc(C(F)(F)F)c1` [Example 52, (S)-3-Methyl-1-(3-piperidin-1-yl-propyl)-4-(3-trifluoromethyl-phenyl)-piperazin-2-one] belongs 130 nM; to `COC(=O)[C@H](CCN1CCC2(CC2)[C@H](O)C1)N1CCN(c2cccc(Cl)c2)CCC1=O` [Example 3, (S)-2-[4-(3-Chloro-phenyl)-7-oxo-[1,4]diazepan-1-yl]-4-((S)-4-hydroxy-6-aza-spiro[2.5]oct-6-yl)-butyric acid methyl ester], 130 nM; to `C[C@H]1C(=O)N(CCCN2CCC3(CC3)[C@H](O)C2)CCN1c1ccc(C(F)(F)F)c(F)c1` [Example 102, (S)-4-(3-Fluoro-4-trifluoromethyl-phenyl)-1-[3-((S)-4-hydroxy-6-aza-spiro[2.5]oct-6-yl)-propyl]-3-methyl-piperazin-2-one], 6 nM. As to `CC1C(=O)N(CCCN2CCC3(CC3)[C@H](O)C2)CCN1c1cccc(OC(F)(F)F)c1` (stereo partly drawn) [Example 44, 1-[3-((S)-4-Hydroxy-6-aza-spiro[2.5]oct-6-yl)-propyl]-3-methyl-4-(3-trifluoromethoxy-phenyl)-piperazin-2-one], the IC50 amounted to 20 nM.

As for `O=C1CCN(c2cccc(C(F)(F)F)c2)CCN1CCCN1CCC(O)(c2ccccc2)CC1` [Example 34, 4-[3-(4-Hydroxy-4-phenyl-piperidin-1-yl)-propyl]-1-(3-trifluoromethyl-phenyl)-[1,4]diazepan-5-one], the IC50 worked out at 930 nM. On to `CC1C(=O)N(CCCN2CCCCC2)CCN1c1ccc(Cl)c(Cl)c1` (centres unmarked) [Example 71, 4-(3,4-Dichloro-phenyl)-3-methyl-1-(3-piperidin-1-yl-propyl)-piperazin-2-one], for which the IC50 was found to be 226 nM. To `COC(=O)C(CCCN1CCC(C)(O)CC1)N1CCN(c2cccc(C(F)(F)F)c2)CCC1=O` (racemic) [Example 29, (rac)-5-(4-Hydroxy-4-methyl-piperidin-1-yl)-2-[7-oxo-4-(3-trifluoromethyl-phenyl)-[1,4]diazepan-1-yl]-pentanoic acid methyl ester] belongs 640 nM.

In the case of `CC1C(=O)N(CCCN2CCC3(CC3)[C@H](O)C2)CCN1c1cccc(-c2ccccc2)c1` (stereo partly drawn) [Example 90, 4-Biphenyl-3-yl-1-[3-((S)-4-hydroxy-6-aza-spiro[2.5]oct-6-yl)-propyl]-3-methyl-piperazin-2-one], the IC50 was determined as 508 nM. With `C[C@H]1C(=O)N(CCCN2CCC3(CC3)[C@H](O)C2)CCN1c1ccc(F)c(OC(F)(F)F)c1` [Example 86, (S)-4-(4-Fluoro-3-trifluoromethoxy-phenyl)-1-[3-((S)-4-hydroxy-6-aza-spiro[2.5]oct-6-yl)-propyl]-3-methyl-piperazin-2-one], the IC50 was found to be 33 nM.

Regarding `C[C@H]1C(=O)N(CCCN2CCC3(CC3)[C@H](O)C2)CCN1c1ccc(F)c(C(F)(F)F)c1` [Example 78, (S)-4-(4-Fluoro-3-trifluoromethyl-phenyl)-1-[3-((S)-4-hydroxy-6-aza-spiro[2.5]oct-6-yl)-propyl]-3-methyl-piperazin-2-one], the IC50 amounted to 13 nM. For the molecule `O=C1CCN(c2ccc(C(F)(F)F)cc2)CCN1[C@H](CO)CCN1CCC2(CC2)[C@H](O)C1` [Example 20, 4-[(S)-3-((S)-4-Hydroxy-6-aza-spiro[2.5]oct-6-yl)-1-hydroxymethyl-propyl]-1-(4-trifluoromethyl-phenyl)-[1,4]diazepan-5-one], the IC50 was 350 nM.

Regarding `CC1C(=O)N(C(CO)CCN2CCC3(CC3)[C@H](O)C2)CCN1c1cccc(C(F)(F)F)c1` (stereo partly drawn) [Example 55, 1-[3-((S)-4-Hydroxy-6-aza-spiro[2.5]oct-6-yl)-1-hydroxymethyl-propyl]-3-methyl-4-(3-trifluoromethyl-phenyl)-piperazin-2-one], the IC50 turned out to be 10 nM.

`COC(=O)[C@H](CCN1CCC2(CC2)[C@H](O)C1)N1CCN(c2ccc(OC(F)(F)F)cc2)CCC1=O` [Example 11, (S)-4-((S)-4-Hydroxy-6-aza-spiro[2.5]oct-6-yl)-2-[7-oxo-4-(4-trifluoromethoxy-phenyl)-[1,4]diazepan-1-yl]-butyric acid methyl ester]: the IC50 was 400 nM.

Consider `NC(=O)[C@H](CCN1CCC2(CC2)[C@H](O)C1)N1CCN(c2ccc(Cl)c(Cl)c2)CCC1=O` [Example 64, (S)-2-[4-(3,4-Dichloro-phenyl)-7-oxo-[1,4]diazepan-1-yl]-4-((S)-4-hydroxy-6-aza-spiro[2.5]oct-6-yl)-butyramide], for which the IC50 turned out to be 663 nM.

Turning to `CC1C(=O)N(CC[C@H](O)CN2CCC3(CC3)[C@H](O)C2)CCN1c1ccc(Cl)c(Cl)c1` (stereo partly drawn) [Example 107, 4-(3,4-Dichloro-phenyl)-1-[(S)-3-hydroxy-4-((S)-4-hydroxy-6-aza-spiro[2.5]oct-6-yl)-butyl]-3-methyl-piperazin-2-one], the IC50 was 15 nM. Take `CC1C(=O)N(C(CCN2CCC3(CC3)[C@H](O)C2)C(=O)O)CCN1c1cccc(OC(F)(F)F)c1` (stereo partly drawn) [Example 48, 4-((S)-4-Hydroxy-6-aza-spiro[2.5]oct-6-yl)-2-[3-methyl-2-oxo-4-(3-trifluoromethoxy-phenyl)-piperazin-1-yl]-butyric acid]: the IC50 came to 30 nM.

On to `CC1CN([C@@H](CO)CCN2CCC3(CC3)[C@H](O)C2)C(=O)CCN1c1ccc(Cl)c(Cl)c1` (mixture of isomers) [Example 68, (R,S)-1-(3,4-Dichloro-phenyl)-4-[(S)-3-((S)-4-hydroxy-6-aza-spiro[2.5]oct-6-yl)-1-hydroxymethyl-propyl]-2-methyl-[1,4]diazepan-5-one], for which the concentration for half-maximal inhibition (IC50) turned out to be 46 nM. To `O=C1CCN(c2cccc(OC(F)(F)F)c2)CCN1[C@H](CO)CCN1CCC2(CC2)[C@H](O)C1` [Example 14, 4-[(S)-3-((S)-4-Hydroxy-6-aza-spiro[2.5]oct-6-yl)-1-hydroxymethyl-propyl]-1-(3-trifluoromethoxy-phenyl)-[1,4]diazepan-5-one] belongs 10 nM; to `C[C@H]1C(=O)N(CCCN2CCC3(CC3)[C@H](O)C2)CCN1c1ccc(C(F)(F)F)cc1` [Example 96, (S)-1-[3-((S)-4-Hydroxy-6-aza-spiro[2.5]oct-6-yl)-propyl]-3-methyl-4-(4-trifluoromethyl-phenyl)-piperazin-2-one], 26 nM. To `COC(=O)[C@H](CCN1CCC2(CC2)[C@H](O)C1)N1C[C@@H](C)N(c2ccc(Cl)c(Cl)c2)CCC1=O` [Example 65, (S)-2-[(R)-4-(3,4-dichloro-phenyl)-3-methyl-7-oxo-[1,4]diazepan-1-yl]-4-((S)-4-hydroxy-6-aza-spiro[2.5]oct-6-yl)-butyric acid methyl ester] belongs 16 nM.

Take `C[C@H]1C(=O)N(CCCN2CCC3(CC3)[C@H](O)C2)CCN1c1ccc(C(F)(F)F)c(Cl)c1` [Example 83, (S)-4-(3-Chloro-4-trifluoromethyl-phenyl)-1-[3-((S)-4-hydroxy-6-aza-spiro[2.5]oct-6-yl)-propyl]-3-methyl-piperazin-2-one]: the IC50 is 2 nM.

As for `COC(=O)[C@H](CCN1C[C@@H](C)C[C@H](O)C1)N1CCN(c2cccc(C(F)(F)F)c2)CCC1=O` [Example 7, (S)-4-((3S,5S)-3-Hydroxy-5-methyl-piperidin-1-yl)-2-[7-oxo-4-(3-trifluoromethyl-phenyl)-[1,4]diazepan-1-yl]-butyric acid methyl ester], the IC50 is 90 nM. With `O=C1CCN(c2cccc(Cl)c2)CCN1[C@H](CO)CCN1CCC2(CC2)[C@H](O)C1` [Example 4, 1-(3-Chloro-phenyl)-4-[(S)-3-((S)-4-hydroxy-6-aza-spiro[2.5]oct-6-yl)-1-hydroxymethyl-propyl]-[1,4]diazepan-5-one] the figure was 60 nM.

A word on the IC50: it is the point on the concentration scale where inhibition reaches its midpoint.
